Entries after “also recorded” stand apart in the source; their conditions may differ.

Here are results for ten molecules from patent US20260284019A1, “CARBOXAMIDE COMPOUNDS AS SUMO ACTIVATING COMPOUNDS FOR TREATMENT OF CARDIOVASCULAR DISEASES” (NOVOHEART INTERNATIONAL LIMITED, priority 2023, published 2026).

One series has as its target T1, SUMO E1 ligase protein (Homo sapiens, UniProt Q9UBE0+Q9UBT2).
T1 sequence (Q9UBE0 1-346): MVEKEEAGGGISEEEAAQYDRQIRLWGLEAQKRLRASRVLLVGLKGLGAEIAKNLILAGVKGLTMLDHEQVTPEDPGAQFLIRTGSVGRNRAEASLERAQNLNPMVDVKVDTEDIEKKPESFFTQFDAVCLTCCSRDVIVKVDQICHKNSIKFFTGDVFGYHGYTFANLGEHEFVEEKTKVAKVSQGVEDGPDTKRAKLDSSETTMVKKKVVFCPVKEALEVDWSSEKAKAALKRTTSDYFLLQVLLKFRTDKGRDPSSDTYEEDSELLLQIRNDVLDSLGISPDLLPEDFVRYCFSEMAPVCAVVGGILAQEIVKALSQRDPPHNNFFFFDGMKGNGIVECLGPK
T1 sequence (Q9UBT2 1-640): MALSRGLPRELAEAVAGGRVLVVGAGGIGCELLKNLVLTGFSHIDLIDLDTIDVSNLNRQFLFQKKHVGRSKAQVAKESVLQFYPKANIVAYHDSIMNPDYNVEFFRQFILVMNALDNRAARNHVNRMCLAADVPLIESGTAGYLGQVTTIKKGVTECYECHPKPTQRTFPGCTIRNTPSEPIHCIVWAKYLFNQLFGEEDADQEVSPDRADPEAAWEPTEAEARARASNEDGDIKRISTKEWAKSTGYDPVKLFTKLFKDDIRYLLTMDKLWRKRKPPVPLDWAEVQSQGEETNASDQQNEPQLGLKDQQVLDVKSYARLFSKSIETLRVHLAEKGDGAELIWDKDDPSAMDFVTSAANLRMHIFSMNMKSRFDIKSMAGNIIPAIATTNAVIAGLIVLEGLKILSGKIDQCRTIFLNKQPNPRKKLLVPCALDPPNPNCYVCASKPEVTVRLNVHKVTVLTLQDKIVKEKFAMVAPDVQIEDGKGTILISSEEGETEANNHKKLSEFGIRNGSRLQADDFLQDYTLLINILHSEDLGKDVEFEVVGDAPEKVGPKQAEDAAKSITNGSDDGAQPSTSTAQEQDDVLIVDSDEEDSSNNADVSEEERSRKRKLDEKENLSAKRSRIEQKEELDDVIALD
In words: In vitro SUMO E1 ATP hydrolysis assay for SUMO E1 ligase activity (AMP produced, luciferase luminescence). Conditions: racemic mixtures; for SUMO E1 activity (luminescence), ranking among the 11 compounds: 1 μM concentration; for dose-dependent effect in SUMO E1 assays compared with control compound N106: luminescence, FIG. 4B. Type of series: biochemical. Here is the method:
(§1) To investigate the effects of carboxamide compounds as SUMOylation activators, the compounds were subjected to an ATP-based assay of SUMO E1 ligase activity. The racemic mixture of each compound was first tested with the SUMO E1 ligase assay to test for SUMO activation activity. Compounds with no SUMO E1 ligase activity were excluded. For compounds with recorded SUMO E1 ligase activity, their four pure stereoisomers were tested for SUMO E1 ligase activity by measuring the adenosine monophosphate (AMP) produced from the E1 ligase reaction as described below. Each pure stereoisomer was also subjected to functional analysis in engineered cardiac tissues (FIG. 3A). The pure stereoisomers of compounds with SUMO E1 ligase activity were administered to human ventricular cardiac tissue strips that had been subjected to a maturation protocol (see below). […] Stereoisomers that could induce SERCA2a SUMOylation were further tested for their inotropic effects, in hvCTS models of cardiomyopathy and heart failure, by fabrication of hvCTS with cardiomyocytes derived from human induced pluripotent stem cells (i.e., hiPSCs) of patients with cardiomyopathy.
Stereoisomers of the test compounds were incubated with SUMO E1 ligase protein and ATP. E1 ligase activation by the test compound was determined by measuring the AMP produced during the enzymatic reaction after removal of the remaining ATP by ATP adenyl cyclase and converting AMP to ADP by polyphosphate-AMP phosphotransferase. The converted ADP was further converted to ATP using […] and detected through luciferase reaction.

The test system of series [1] is human ventricular cardiac tissue strips (hvCTS). In words: Contractility of matured human ventricular cardiac tissue strips (hvCTS), twitch force from post deflection. To be noted: for effect on relaxation time / effect on developed force: 1.5 Hz, 10 minutes after each dose; for effect on developed force: matured hvCTS with positive force frequency relationship, day 24. Type of series: cell-based.
Excerpt: FIG. 5 discloses the dose-dependent effects of stereoisomers of Compounds 6 on developed force in human cardiac tissue strips that were subjected to maturation protocol (see description below in the section entitled “Maturation of hvCTS”) with maturation media and electrical stimulation of 0.5 Hz from day 7-10, 1.0 Hz from day 10-13, 1.5 Hz from day 13-15, 2.0 Hz from day 16-19, 2.5 Hz from day 19-22 and 3.0 from day 22-24. Contractile data were collected at day 24 post-hvCTS fabrication. Developed forces were measured at 1.5 Hz, 10 minutes after administration of each dose of each stereoisomer. Only hvCTSs with positive force frequency relationships (+FFRs) were tested.
Contractile data were collected at day 24 post-hvCTS fabrication. Developed forces were measured at 1.5 Hz, 10 minutes after administration of each dose of the stereoisomer. Only hvCTSs with positive force frequency relationships (+FFRs) were tested.
as §1
The effects of compounds on cardiac muscle function as evaluated by the Novoheart hvCTS assay are derived from tracings of twitch force versus time. The twitch force may be calculated from measurements of end-post deflection based on a published beam-bending equation as previously described.^29, 30 The twitch force tracings are then analyzed from each “heartbeat” of the tissue, and averaged over multiple beats to extract metrics related to the beat rate frequency and beat rate variability, the passive and active tissue forces, and the contraction and relaxation kinetics, as detailed previously in the field^29-32, and briefly described as follows:
For each beat, the “passive (or diastolic) force” is the minimum value of the twitch force; the “active (or systolic) force” is the maximum value of the twitch force; and the “contractile (or developed) force” is the difference between the systolic and diastolic forces.
“Contractile kinetics”, in some aspects, are analyzed by examining the twitch force tracing during the increase from the diastolic minimum to the systolic maximum portion of the curve, and these can include the duration of rise time from diastolic to systolic force and related metrics (e.g. duration of rise time from 5% maximum to 95% maximum force, and the like), the area under the curve of rise time from minimum to maximum force, the maximum rate of change of force versus time during contraction (max+dF/dt), and other related metrics. […]

The conditions of series [2]: cited from earlier work.

For `CC(NC(=O)C1CC(=O)N(c2ccc(C(=O)c3ccccc3)cc2)C1)c1cnn2ccccc12` (mixture of isomers) [Compound 6, 1-(4-benzoylphenyl)-5-oxo-N-(1-(pyrazolo[1,5-a]pyridin-3-yl)ethyl) pyrrolidine-3-carboxamide], on SUMO E1 ligase protein, the “SUMO E1 activity (luminescence), ranking among the 11 compounds” value (“SUMO E1 activity (luminescence)” for short) is reported as “largest effects; also recorded: highest” and the “dose-dependent effect in SUMO E1 assays compared with control compound N106” value is on record as “larger effects than the control compound N106”.
For `C[C@@H](NC(=O)[C@@H]1CC(=O)N(c2cccnc2)C1)c1cnn2ccccc12` [Compound 9-1, (R)-5-oxo-N—((R)-1-(pyrazolo[1,5-a]pyridin-3-yl)ethyl)-1-(pyridin-3-yl) pyrrolidine-3-carboxamide], in series [1] (matured hvCTS), the “effect on relaxation time” value is recorded as “decrease in relaxation time that was dose dependent”.
In the case of `C[C@H](NC(=O)[C@@H]1CC(=O)N(c2cccnc2)C1)c1cnn2ccccc12` [Compound 9-3, (R)-5-oxo-N—((S)-1-(pyrazolo[1,5-a]pyridin-3-yl)ethyl)-1-(pyridin-3-yl) pyrrolidine-3-carboxamide], in series [1] (matured hvCTS), the “contractile kinetics (overall conclusion)” value was “improved” and the “effect on relaxation time” value is “decrease in relaxation time that was dose dependent”. The “decrease in relaxation time” value in series [1] (matured hvCTS, at 10 μM) turned out to be 15%.
With `CC(NC(=O)C1CC(=O)N(c2cccnc2)C1)c1cnn2ccccc12` (mixture of isomers) [Compound 9, 5-oxo-N-(1-(pyrazolo[1,5-a]pyridin-3-yl)ethyl)-1-(pyridin-3-yl) pyrrolidine-3-carboxamide], on SUMO E1 ligase protein, the “SUMO E1 activity (luminescence)” value is given as “largest effects; also recorded: highest” and the “dose-dependent effect in SUMO E1 assays compared with control compound N106” value is reported as “larger effects than the control compound N106”.
As to `C[C@@H](NC(=O)[C@H]1CC(=O)N(c2cccnc2)C1)c1cnn2ccccc12` [Compound 9-4, (S)-5-oxo-N—((R)-1-(pyrazolo[1,5-a]pyridin-3-yl)ethyl)-1-(pyridin-3-yl) pyrrolidine-3-carboxamide], in series [1] (Homo sapiens, 10 min, matured hvCTS, at 1 μM, read-out: maximum decrease in developed force), the inhibition at 1 µM stood at 10%. Also, the “effect on developed force” value in series [1] is “small but significant dose-dependent decrease”. Also, the “effect on relaxation time” value in series [1] (matured hvCTS) was “decrease in relaxation time that was dose dependent”.
Regarding `C[C@@H](NC(=O)[C@@H]1CC(=O)N(c2ccc(C(=O)c3ccccc3)cc2)C1)c1cnn2ccccc12` [Compound 6-1, 1-(4-benzoylphenyl)-(R)-5-oxo-N—((R)-1-(pyrazolo[1,5-a]pyridin-3-yl)ethyl) pyrrolidine-3-carboxamide], in series [1] (matured hvCTS), the “concentration at which the increase in developed force peaked” value stood at 1 µM, the “contractility (overall conclusion)” value is given as “improved”, the “effect on contraction time” value is “did not show any significant difference” and the “effect on passive tension” value is reported as “did not show any significant difference”. For the same molecule, the “effect on relaxation time” value in series [1] (matured hvCTS) is reported as “did not show any significant difference”. Further, the “effect on developed force” value in series [1] is “positive inotropic effects; also recorded: concentration-dependent increase”.
In the case of `C[C@H](NC(=O)[C@H]1CC(=O)N(c2cccnc2)C1)c1cnn2ccccc12` [Compound 9-2, (S)-5-oxo-N—((S)-1-(pyrazolo[1,5-a]pyridin-3-yl)ethyl)-1-(pyridin-3-yl) pyrrolidine-3-carboxamide], the “effect on relaxation time” value in series [1] (matured hvCTS) is on record as “decrease in relaxation time that was dose dependent”.
With `C[C@H](NC(=O)[C@H]1CC(=O)N(c2ccc(C(=O)c3ccccc3)cc2)C1)c1cnn2ccccc12` [Compound 6-2, 1-(4-benzoylphenyl)-(S)-5-oxo-N—((S)-1-(pyrazolo[1,5-a]pyridin-3-yl)ethyl) pyrrolidine-3-carboxamide], in series [1] (matured hvCTS), the “concentration at which the increase in developed force peaked” value is 1 µM, the “contractility (overall conclusion)” value is on record as “improved”, the “effect on contraction time” value was “did not show any significant difference” and the “effect on passive tension” value is listed as “did not show any significant difference”. Moreover, in series [1] (matured hvCTS), the “effect on relaxation time” value is recorded as “did not show any significant difference”. Moreover, the “effect on developed force” value in series [1] was “positive inotropic effects; also recorded: concentration-dependent increase”.
As to `COc1ccc(-c2nnc(Nc3nc4c(OC)cccc4s3)o2)cc1` [Compound N106, N-(4-methoxybenzo[d]thiazol-2-yl)-5-(4-methoxyphenyl)-1,3,4-oxadiazol-2-amine], the half-life in vivo entry in series [2] was “too short”.
For `CC(NC(=O)C1CC(=O)N(c2cnc3ccccc3c2)C1)c1cnn2ccccc12` (mixture of isomers) [Compound 11, 5-oxo-N-(1-(pyrazolo[1,5-a]pyridin-3-yl)ethyl)-1-(quinolin-3-yl) pyrrolidine-3-carboxamide], the “SUMO E1 activity (luminescence)” value on SUMO E1 ligase protein is reported as “largest effects; also recorded: highest”.
